Reference: patent publication US5292760A, “4-heteroaryl-1,3-benzodiazepines and 2-substituted-α-(heteroaryl)benzeneethanamines” (Hoechst-Roussel Pharmaceuticals Inc., priority 1992, dated 1994)
Where a name gives a salt, the structure may show the parent alone. Read-outs that look alike come from different tables or passages of the source.

Assays:
[1] = tested on: supramaximal electroshock (SES); assay: supramaximal electroshock (SES) assay (anticonvulsant activity); format: in vivo, male mouse; settings: Mus musculus, ip, read-out: Anticonvulsant Activity ED50
Description: The Formula III compounds of this invention are useful as anticonvulsants due to their anticonvulsant activity in mammals. Anticonvulsant activity is measured in the male mouse using the supramaximal electroshock (SES) assay described in Arch. Int. Pharmacodyn. 92: 97-107, 1952. Intraperitoneal doses of representative compounds of the invention and their ability to protect from the effect of SES is shown below in Table 2. ED50 values, i.e., the doses at which, within 95% confidence intervals, 50% of the animals are protected are calculated by computerized probit analysis.

[2] = tested on: N-methyl-D-aspartic acid (NMDA)-induced seizures; assay: N-Methyl-D,L-Aspartic Acid Induced Seizure Assay (NMDA protection); format: in vivo, male Swiss Webster mice; settings: Mus musculus, 0.5 h; ip; N-methyl-D,L-aspartic acid 350 mg/kg, sc; total absence of clonic seizures during 30 minutes
Description: In this assay, male Swiss Webster mice (Charles River), 18-25 grams are used. Animals are ordered at 33 to 36 days of age and can be used for 8 days after arrival. They are housed for at least 24 hours in a climate controlled animal colony with food and water available ad libitum. On the day of testing, animals are brought to the laboratory and randomly assigned to groups. N-Methyl-D,L-aspartic acid (350 mg) is dissolved in 10 ml of saline and mixed thoroughly with a homogenizer for 1-2 minutes. Test compounds are prepared in distilled water and, if insoluable, a suitable surfactant is added. For a primary screen the test compound is administered at 60 mg/kg, ip (10 ml/kg), to groups of ten mice, 30 minutes prior to challenge with N-methyl-D,L-aspartic acid (350 mg/kg, sc). After N-Methyl-D,L-aspartic acid administration animals are placed individually in clear plastic cyclinders (12"×5.5"×1/4") and then observed for clonic seizures. N-methyl-D,L-aspartic acid will produce clonic seizures, and sometimes tonic seizures and death, in vehicle control animals.
A clonic convulsion is defined as a single episode of clonic spasms of a least a 3 second duration. A tonic seizure is defined as a brief period of hindlimb flexion followed by a prolonged period of hindlimb extension. The mice treated with N-methyl-D,L-aspartic acid are considered "protected" when there is a total absence of clonic seizures during the 30 minute observation period.
Test compounds are run at the time of peak effect. Three or more doses are used (10 animals per group).
Data is calculated by the method of J. T. Litchfield, Jr. and F. Wilcoxon. A test should be repeated if 40% of vehicle control animals are protected. The normalized percent formula is used when 10-30% of the vehicle control animals are protected.
The normalized percent protection is calculated using the following formula: […]

[3] = tested on: Geller Conflict Paradigm in Rats; assay: Geller Conflict Paradigm in Rats (anxiolytic activity); format: in vivo
Text: The intraperitoneal (i.p.) dosages at which the following compounds show anxiolytic activity are: […]

[4] = tested on: tetrabenazine induced ptosis; assay: tetrabenazine induced ptosis assay in mice (antidepressant activity); format: in vivo; settings: Mus musculus, ip, read-out: Anti-Depressant Activity ED50
[5] = 50% inhibition of ptosis of tetrabenazine-induced depression in mice

CNC(Cc1cc(Br)ccc1N)c1sccc1C (stereo not drawn) [2-Amino-5-bromo-N-methyl-α-(3-methyl-2-thienyl)benzeneethaneamine]
ED50 [1]: 9.2 mg/kg

NC(CCCP(=O)(O)O)C(=O)O (stereo not shown) [2-Amino-5-phosphonovaleric acid, reference compound]
ED50 [2]: 48.5 mg/kg

CCNC(Cc1ccccc1N)c1sccc1C.Cl.Cl (stereo not drawn) [2-Amino-N-ethyl-α-(3-methyl-2-thienyl)benzeneethanamine dihydrochloride]
Anti-Conflict Response, % Change Compared to Control ([3]; dose 1 m.g./kg i.p.): +100%
Anti-Conflict Response, % Change Compared to Control ([3]; dose 5 m.g./kg i.p.): +70%

CNC(Cc1ccccc1N)c1cccs1 (stereo not drawn) [2-Amino-N-methyl-α-(2-thienyl)benzeneethanamine dihydrochloride hemihydrate]
ED50 [1]: 30.4 mg/kg

CNC(Cc1ccc(C(F)(F)F)cc1N)c1sccc1C (stereo not drawn) [2-Amino-N-methyl-α-(3-methyl-2-thienyl)-4-trifluoromethylbenzeneethanamine]
ED50 [2]: 26.4 mg/kg

CNC(Cc1ccccc1N)c1sccc1C (stereo not drawn) [2-Amino-N-methyl-α-(3-methyl-2-thienyl)benzeneethanamine]
ED50 [1]: 4.6 mg/kg
Anti-Conflict Response, % Change Compared to Control ([3]; dose 20 m.g./kg i.p.): +807%
Anti-Conflict Response, % Change Compared to Control ([3]; dose 40 m.g./kg i.p.): +547%
Anti-Conflict Response, % Change Compared to Control ([3]; dose 60 m.g./kg i.p.): +242%
ED50 [2]: 26.7 mg/kg

Cc1ccsc1C(N)Cc1ccccc1N.Cl.Cl (stereo not drawn) [2-Amino-α-(3-methyl-2-thienyl)benzeneethanamine dihydrochloride]
ED50 [2]: 19 mg/kg

CC1=Nc2ccccc2CC(c2ccc(C)s2)N1C (stereo not shown) [4,5-Dihydro-2,3-dimethyl-4-(5-methyl-2-thienyl)-3H-1,3-benzodiazepine]
ED50 [4]: 12.2 mg/kg

CCC1=Nc2ccccc2CC(c2cccs2)N1C.Cl (stereo not shown) [4,5-Dihydro-2-ethyl-3-methyl-4-(2-thienyl)-3H-1,3-benzodiazepine hydrochloride]
ED50 [4, 5]: 4.7 mg/kg

CCC1=Nc2ccccc2CC(c2sccc2C)N1C.Cl.O (stereo not shown) [4,5-Dihydro-2-ethyl-3-methyl-4-(3-methyl-2-thienyl)-3H-1,3-benzodiazepine hydrochloride monohydrate]
ED50 [4, 5]: 5.3 mg/kg

CCC1=Nc2ccccc2CC(c2ccsc2)N1C.Cl (stereo not shown) [4,5-Dihydro-2-ethyl-3-methyl-4-(3-thienyl)-3H-1,3-benzodiazepine hydrochloride]
ED50 [4, 5]: 8.7 mg/kg

CCC1=Nc2ccccc2CC(c2ccncc2)N1C (stereo not shown) [4,5-Dihydro-2-ethyl-3-methyl-4-(4-pyridinyl)-3H-1,3-benzodiazepine hemihydrate]
ED50 [4]: 6.8 mg/kg

CN1C(=O)CN=C(c2ccccc2)c2cc(Cl)ccc21 [Diazepam, reference compound]
Anti-Conflict Response, % Change Compared to Control ([3]; dose 10 m.g./kg i.p.): +180%
Anti-Conflict Response, % Change Compared to Control ([3]; dose 15 m.g./kg i.p.): +453%
Anti-Conflict Response, % Change Compared to Control ([3]; dose 20 m.g./kg i.p.): +630%

O=C1NC(=O)C(c2ccccc2)(c2ccccc2)N1 [Diphenylhydantoin, reference compound]
ED50 ([1]; dose protecting 50% of the animals, 95% confidence, probit analysis): 3.9 mg/kg

CN(C)CCC=C1c2ccccc2COc2ccccc21 [Doxepin, reference compound]
ED50 [4, 5]: 3.8 mg/kg
